Test results: patent US20240384268A1, “Oligonucleotides” (Hudson Institute of Medical Research, priority 2021, published 2024)
In the oligonucleotide strings, read from the 5' end, every base follows the letter of its sugar. An asterisk marks phosphorothioate; unmarked linkages are phosphodiester. Other units and linkages are bracketed, terminal groups are in braces. A string of capitals states the bases alone. d = 2'-deoxy (DNA); m = 2'-O-methyl

Biological target: T1, human TLR7 (Homo sapiens, UniProt Q9NYK1)
T1 construct: HA; host or cells: 293XL-hTLR7-HA (HEK293)
T1 sequence (Q9NYK1 27-1049): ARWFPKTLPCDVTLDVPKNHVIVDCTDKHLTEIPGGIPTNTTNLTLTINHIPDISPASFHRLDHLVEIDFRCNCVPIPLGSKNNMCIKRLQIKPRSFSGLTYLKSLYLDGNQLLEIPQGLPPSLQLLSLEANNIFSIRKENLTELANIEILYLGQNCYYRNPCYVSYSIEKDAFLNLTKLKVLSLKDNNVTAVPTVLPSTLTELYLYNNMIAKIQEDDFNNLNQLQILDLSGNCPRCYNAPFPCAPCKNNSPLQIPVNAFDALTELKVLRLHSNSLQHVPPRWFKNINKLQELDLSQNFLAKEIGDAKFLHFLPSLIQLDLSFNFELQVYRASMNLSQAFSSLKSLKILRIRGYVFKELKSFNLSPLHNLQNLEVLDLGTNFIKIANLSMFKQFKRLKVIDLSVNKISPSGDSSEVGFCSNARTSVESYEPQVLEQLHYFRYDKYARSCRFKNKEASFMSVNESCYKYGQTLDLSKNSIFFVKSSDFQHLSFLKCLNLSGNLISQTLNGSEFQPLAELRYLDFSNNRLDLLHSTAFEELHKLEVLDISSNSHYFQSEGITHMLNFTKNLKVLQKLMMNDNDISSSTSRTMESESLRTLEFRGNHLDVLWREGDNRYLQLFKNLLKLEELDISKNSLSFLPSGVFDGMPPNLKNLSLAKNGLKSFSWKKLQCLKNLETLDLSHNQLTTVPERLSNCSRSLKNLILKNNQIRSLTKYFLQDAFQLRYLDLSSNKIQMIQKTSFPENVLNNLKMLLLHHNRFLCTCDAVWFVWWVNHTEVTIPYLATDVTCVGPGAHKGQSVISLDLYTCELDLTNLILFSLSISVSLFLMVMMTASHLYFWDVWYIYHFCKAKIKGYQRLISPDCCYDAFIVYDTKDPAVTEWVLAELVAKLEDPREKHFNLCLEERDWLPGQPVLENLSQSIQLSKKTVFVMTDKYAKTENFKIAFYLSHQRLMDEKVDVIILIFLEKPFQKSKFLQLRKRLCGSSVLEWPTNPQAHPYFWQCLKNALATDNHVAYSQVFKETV
Experiment: HEK-TLR7 NF-κB-luciferase reporter, R848 stimulation
Assay type: cell-based
Conditions: for TLR7-100 nM: averaged NF-κB-Luciferase relative to R848: HEK-TLR7, 100 nM ASO, percentage of R848 without ASO (Alharbi et al., 2020); for TLR7 100 nM (averaged NF-κB-Luciferase level relative to R848 condition): ASO 100 nM; for TLR7 100 nM (averaged NF-κB-Luciferase level relative to R848 condition) / TLR7 500 nM (averaged NF-κB-Luciferase level relative to R848 condition): relative to R848 only, given as fraction; for TLR7 500 nM (averaged NF-κB-Luciferase level relative to R848 condition): ASO 500 nM

Row | Substance | TLR7-100 nM: averaged NF-κB-Luciferase relative to R848 | TLR7 100 nM (averaged NF-κB-Luciferase level relative to R848 condition) | TLR7 500 nM (averaged NF-κB-Luciferase level relative to R848 condition)
1 | mG*mU*mC*mU*mC*C*A*T*G*T*C*C*C*A*G*mG*mC*mC*mU*mC (mG*mU*mC*mU*mC*dC*dA*dT*dG*dT*dC*dC*dC*dA*dG*mG*mC*mC*mU*mC) [[CDKN2B;AS1]2231] | 23.75% | – | –
2 | GGCTCGGCTTGCCTAC (antisense; LNA-modified, pattern not given here) [CAMSAP1-5594 LNA V1] | – | 0.569 | 0.186
3 | TGGTGGCCACCCATCT (antisense; LNA-modified, pattern not given here) [CTNN2B-2479 LNA V1] | – | 0.957 | 0.393
4 | mC*mA*mG*mU*mG*T*T*T*T*T*A*A*T*T*T*mU*mG*mU*mA*mG (mC*mA*mG*mU*mG*dT*dT*dT*dT*dT*dA*dA*dT*dT*dT*mU*mG*mU*mA*mG; antisense) [[CDKN2B-AS1]613] | 62.68% | – | –
5 | TACTTTCCGAGGTGTC (antisense; LNA-modified, pattern not given here) [CAMSAP1-1739 LNA KL] | – | 0.738 | 0.451
6 | CCACATCCTGTGGCTC (antisense; LNA-modified, pattern not given here) [CAMSAP1-2906 LNA V1] | – | 0.789 | 0.363
7 | TGCTCCTCGGTCTCCC (antisense; LNA-modified, pattern not given here) [CAMSAP1-1850 LNA V1] | – | 0.751 | 0.595
8 | AGATTTCAGAGCAGCT (antisense; LNA-modified, pattern not given here) [EGFR-4885 LNA KL] | – | 0.438 | 0.021
9 | ATGGCCTCCCATCTCC (antisense; LNA-modified, pattern not given here) [HPRT LNA-330 V1] | – | 0.550 | 0.117
10 | GTCTCTGGAGCTTCCT (antisense; LNA-modified, pattern not given here) [CAMSAP1-2456 LNA V1] | – | 0.477 | 0.084
11 | CGCTTTTCTGTCTGGT (antisense; LNA-modified, pattern not given here) [CTNN2B-311 LNA KL] | – | 0.393 | 0.142
12 | mG*mU*mG*mU*mU*T*T*T*A*A*T*T*T*T*G*mU*mA*mG*mA*mG (mG*mU*mG*mU*mU*dT*dT*dT*dA*dA*dT*dT*dT*dT*dG*mU*mA*mG*mA*mG) [[CDKN2B-AS1]611] | 23.63% | – | –
13 | mG*mU*mG*mU*mC*C*T*T*C*A*T*G*C*T*T*mU*mG*mG*mA*mU (GUGUCCTTCATGCTTUGGAU; antisense; sugars from the 5' end m5 d10 m5, all phosphorothioate, methylation of C not given here) [[CDKN2B-AS1]1415] | 18.05% | – | –
14 | CTTGAAGCATCGTATC (antisense; LNA-modified, pattern not given here) [CTNN2B-3648 LNA KL] | – | 0.363 | 0.044
15 | GTCCTTGCACGTGGCT (antisense; LNA-modified, pattern not given here) [EGFR-1015 LNA V1] | – | 0.471 | 0.251
16 | mA*mG*mC*mA*mG*T*C*T*C*C*A*T*G*T*C*mC*mC*mA*mG*mG (AGCAGTCTCCATGTCCCAGG; antisense; sugars from the 5' end m5 d10 m5, all phosphorothioate, methylation of C not given here) [[CDKN2B-AS1]2235] | 25.50% | – | –
